Counter-ions that a name gives are not always drawn.
Columns and labels:
[1] = molecular target: T1, thromboxane synthetase enzyme (Rattus norvegicus, UniProt P49430); assay: Inhibition of thromboxane (TXB2) formation in washed rat platelets, TXB2 radioimmunoassay; assay type: biochemical, Okamoto-Aoki spontaneously hypertensive rats (SHR); conditions: Concentration 1x10^-4M, platelet suspension incubated 10 minutes at 37 °C
T1 construct: from tissue; host or cells: washed blood platelets from Okamoto-Aoki spontaneously hypertensive rats (SHR)
T1 sequence (P49430 1-533): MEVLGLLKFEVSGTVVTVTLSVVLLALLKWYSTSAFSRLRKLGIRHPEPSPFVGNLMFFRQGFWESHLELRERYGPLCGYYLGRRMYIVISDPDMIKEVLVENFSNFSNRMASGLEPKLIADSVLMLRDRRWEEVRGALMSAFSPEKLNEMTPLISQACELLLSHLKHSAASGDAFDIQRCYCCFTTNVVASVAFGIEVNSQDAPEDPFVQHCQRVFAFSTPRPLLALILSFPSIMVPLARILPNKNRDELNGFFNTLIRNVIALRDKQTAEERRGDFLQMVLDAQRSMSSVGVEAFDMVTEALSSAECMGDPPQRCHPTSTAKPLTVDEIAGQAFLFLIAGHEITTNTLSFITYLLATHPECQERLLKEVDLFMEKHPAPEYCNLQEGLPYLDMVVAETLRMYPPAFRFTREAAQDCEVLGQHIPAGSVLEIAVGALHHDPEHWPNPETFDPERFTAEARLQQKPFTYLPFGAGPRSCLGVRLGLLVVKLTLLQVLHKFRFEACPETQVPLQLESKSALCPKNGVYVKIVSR
Experimental: Under urethan anesthesia, […] of arterial blood from Okamoto-Aoki spontaneously hypertensive rats (SHR) (Taconic Farms, Germantown, NY) between 19 and 24 weeks in age is collected in one ml of 3.2% sodium citrate in a polystyrene tube. The blood is diluted with 3 ml of cold saline and centrifuged at room temperature for 15 minutes at 460xg. The platelet rich plasma (PRP) is separated. The platelets are isolated by centrifuging the PRP for 10 minutes at 1060xg and are washed in 4 ml of cold oxygenated Krebs phosphate buffer, pH 7.4. The chilled platelets, recovered from centrifuging at 800xg for 10 minutes, are resuspended in oxygenated Krebs phosphate buffer and diluted to contain 4.5-6.0 x 10⁴ platelets/µ1. The inhibition of thromboxane (TX) formation is studied by determining the concentration of thromboxane B₂ (TXB₂), the stable hydrolysis product of TXA₂. Assay samples, prepared on ice, contain 200 µ1 platelet suspension, 50 µ1 saline, and 50 µ1 vehicle (saline) or drug under study. The samples are incubated for 10 minutes at 37 °C in a metabolic shaker. The reaction is terminated by immersing the tubes in an ice bath and adding 50 µl of 0.5M citric acid. The samples are centrifuged for 10 minutes in a refrigerated centrifuge and the supernatants thus obtained are decanted and stored at -20 °C. The TXB₂ content for each sample is determined by a direct radioimmunoassay (RIA) utilizing a TXB₂ specific RIA kit purchased from New England Nuclear, Boston, MA and expressed as pg TXB₂ formed per minute per sample, from which the percent inhibition of TXB₂ formation is calculated.

[2] = system: Male mice of the Swiss Webster Strain; assay: Calcium chloride-induced arrhythmia in anesthetized mice (survival); assay type: in vivo; conditions: Mus musculus, iv, Dose = 10 mg/kg i.v.; calcium chloride 200 mg/kg i.v. bolus 5, 15 or 30 minutes after drug; observed 15 minutes; read-out: CaCl2 #Mice Surviving #Mice Tested (converted)
From the text: (§1) Intravenous administration of high doses of calcium or potassium chloride in animals produces cardiac arrhythmias, cardiac fibrillation and cardiac arrest. Any agent that can prevent these events is considered an antiarrhythmic/antifibrillatory agent. (Meth. and Find Exptl. Clin Pharmacol.2:223-252(1980); Pharmacol, Ther. 24:401-433 (1984); Experimental Cardiac and Antiarrhythmic Drugs, L. Szekeres and Gy. J. Dapp, Akademiai Kiado Preso, Budapest, 9-448 (1971).)
(§2) The method employed is as follows: Male mice of the Swiss Webster Strain (Charles River, Wilmington, MA) weighing 25-35 g are anesthetized with ethyl carbamate (urethan) (1.5g/kg body weight i.p.). A 25-gauge needle attached to PE-20 tubing is inserted into a caudal vein for drug administration. The lead II ECG is recorded by needle electrodes placed subcutaneously in the limbs. All data is collected on a Gould Brush recorder. Animals are observed 5 minutes before drug administration. A 5, 15, or 30 minute period following drug administration is allowed before the bolus injection of calcium chloride, 200 mg/kg i.v. or potassium chloride, 62.5 mg/kg i.v. Control mice receive 4 ml/kg of 0.9% sodium chloride i.v. Mice are observed an additional 15 minutes for arrhythmias, fibrillation, survival or death. Any compound at a dose of less than 20 mg/kg i.v. that protects 3 out of 6 mice from cardiac death in either the potassium or calcium chloride test, is considered active.

[3] = system: Male mice of the Swiss Webster Strain; assay: Potassium chloride-induced arrhythmia in anesthetized mice (survival); assay type: in vivo; conditions: Mus musculus, iv, Dose = 10 mg/kg i.v.; potassium chloride 62.5 mg/kg i.v. bolus 5, 15 or 30 minutes after drug; observed 15 minutes; read-out: KCl #Mice Surviving #Mice Tested (converted)
From the text: as §1, §2

Row | Compound | inhibition at 100 µM [1] [%] | responders at 10 mg/kg [2] [%] | responders at 10 mg/kg [3] [%]
1 | Cc1nccc2nc(NCCCn3ccnc3)ccc12 [Example 40, N-[3-(1H-Imidazol-1-yl)propyl]-5-methyl-1,6-naphthyridin-2-amine,(E)-2-butenedioate (2:3)] | 95 | 33.3 | 50
2 | Cc1cc(NCCc2cccnc2)nc2ccccc12 [Example 95, 4-Methyl-N-[2-(3-pyridinyl)ethyl]-2-quinolinamine,dihydrochloride] |  | 16.7 | 66.7
3 | Cc1ccc(C#N)c(NCCc2ccncc2)n1 [Example 97, 6-Methyl-2-[[2-(4-pyridinyl)ethyl]amino]-3-pyridinecarbonitrile, dihydrochloride] |  | 0 | 50
4 | Cc1cccc2c(-c3ccccc3)cc(NCCCn3ccnc3)nc12 [Example 51, N-[3-(1H-Imidazol-1-yl)propyl]-8-methyl-4-phenyl-2-quinolinamine] | 89 |  | 
5 | N#Cc1ccc(-c2ccncc2)nc1NCCCn1ccnc1 [Example 52, 2-[[3-(1H-Imidazol-1-yl)propyl]amino]-6-(4-pyridinyl)-3-pyridinecarbonitrile] | 85 |  | 
6 | Cc1cccc(NCCCn2ccnc2)n1 [Example 10, N-[3-(1H-Imidazol-1-yl)propyl]-6-methyl-2-pyridinamine,(E)-2-butenedioate (2:3)] |  | 0 | 50
7 | Cc1cc(C)c2ccc(NCCCn3ccnc3)nc2n1 [Example 24, N-[3-(1H-Imidazol-1-yl)propyl]-5,7-dimethyl-1,8-naphthyridin-2-amine, (E)-2-butenedioate (1:2)] | 93 | 16.7 | 100
8 | Clc1cccc(NCCCn2ccnc2)n1 [Example 47, 6-Chloro-N-[3-(1H-imidazol-1-yl)propyl]-2-pyridinamine] | 91 |  | 
9 | O=[N+]([O-])c1ccc(Cl)nc1NCCCn1ccnc1 [Example 57, 6-Chloro-N-[3-(1H-imidazol-1-yl)propyl]-3-nitro-2-pyridinamine, monohydrochloride] | 94 |  | 
10 | c1ccc(-c2cc(NCCCCc3cccnc3)nc3ccccc23)cc1 [Example 110, 4-Phenyl-N-[4-(3-pyridinyl)butyl]-2-quinolinamine] | 99 |  | 
11 | Cc1cccc2c(-c3ccccc3)cc(NCCCCc3cccnc3)nc12 [Example 111, 8-Methyl-4-phenyl-N-[4-(3-pyridinyl)butyl]-2-quinolinamine] | 85 |  | 
12 | Cc1ccc(C#N)c(NCc2ccncc2)n1 [Example 93, 6-Methyl-2-[(4-pyridinylmethyl)amino]-3-pyridinecarbonitrile] | 86 |  | 
13 | CC(=O)N(CCCn1ccnc1)c1cc(C)c2ccccc2n1 [Example 83, N-[3-(1H-Imidazol-1-yl)propyl]-N-(4-methyl-2-quinolinyl)acetamide,monoacetate] | 90 |  | 
14 | O=[N+]([O-])c1cccnc1NCCCCc1ccncc1 [compound 100] | 88 |  | 
15 | Cc1ccc(C#N)c(NCc2cccnc2)n1 [Example 91, 6-Methyl-2-[(3-pyridinylmethyl)amino]-3-pyridinecarbonitrile] | 81 |  | 
16 | N#Cc1ccc(NCCCn2ccnc2)nc1 [Example 45, 6-[[3-(1H-Imidazol-1-yl)propyl]amino]-3-pyridinecarbonitrile] | 92 |  | 
17 | NC(=O)c1ccc(NCCCn2ccnc2)nc1 [Example 46, 6-[[3-(1H-Imidazol-1-yl)propyl]amino]-3-pyridinecarboxamide] | 80 |  | 
18 | Cc1cc(C)c2ccc(NCCCCc3cccnc3)nc2n1 [Example 109, 5,7-Dimethyl-N-[4-(3-pyridinyl)butyl]-1,8-naphthyridin-2-amine,(E)-2-butenedioate (1:2)] | 97 |  | 
19 | CC(=O)c1cc(C#N)c(NCCCn2ccnc2)nc1C [Example 12, 5-Acetyl-2-[[3-(1H-Imidazol-1-yl)propyl]amino]-6-methyl-3-pyridinecarbonitrile] | 96 | 16.7 | 66.7
20 | CC(CCNc1nc2ccccc2c2ccccc12)n1ccnc1 (stereo not drawn) [Example 89, N-[3-(1H-Imidazol-1-yl)butyl]-6-phenanthridinamine] | 98 |  | 
21 | Cc1ccc(C#N)c(NCCC(C)n2ccnc2)n1 (stereo not drawn) [Example 85, 2-[[3-(1H-Imidazol-1-yl)butyl]amino]-6-methyl-3-pyridinecarbonitrile, dihydrochloride] |  | 33.3 | 83.3
22 | c1cnc2nc(NCCCn3ccnc3)ccc2c1 [Example 27, N-[3-(1H-Imidazol-1-yl)propyl]-1,8-naphthyridin-2-amine,(E)-2-butenedioate (1:2)] | 90 |  | 
23 | c1ccc(-c2cc(NCCCn3ccnc3)nc3ccccc23)cc1 [Example 44, N-[3-(1H-Imidazol-1-yl)propyl]-4-phenyl-2-quinolinamine] | 100 |  | 
24 | Cc1ccc2ccc(NCCCn3ccnc3)nc2n1 [Example 38, N-[3-(1H-Imidazol-1-yl)propyl]-7-methyl-1,8-naphthyridin-2-amine,(E)-2-butenedioate (1:2)] | 98 | 33.3 | 66.7
25 | c1cncc(CCCCNc2nccc3ccccc23)c1 [Example 105, N-[4-(3-Pyridinyl)butyl]-1-isoquinolinamine, dihydrochloride] | 97 | 50 | 66.7
26 | N#Cc1ccc(NCCCn2ccnc2)nc1-c1cccc(C(F)(F)F)c1 [Example 71, 6-[[3-(1H-Imidazol-1-yl)propyl]amino]-2-[3-(trifluoromethyl)phenyl]-3-pyridinecarbonitrile, (E)-2-butenedioate (1:1)] | 100 |  | 
27 | c1ccc(-n2nc3ccc(NCCCn4ccnc4)nc3n2)cc1 [Example 56, N-[3-(1H-Imidazol-1-yl)propyl]-2-phenyl-2H-1,2,3-triazolo[4,5-b]pyridin-5-amine] | 95 |  | 
28 | N#Cc1ccc(-c2cccc(C(F)(F)F)c2)nc1NCCCn1ccnc1 [Example 18, 2-[[3-(1H-Imidazol-1-yl)propyl]amino]-6-[3-(trifluoromethyl)phenyl]-3-pyridinecarbonitrile] | 98 |  | 
29 | CC(=O)N(CCCn1ccnc1)c1ccc([N+](=O)[O-])cn1 [Example 58, N-[3-(1H-Imidazol-1-yl)propyl]-N-(5-nitro-2-pyridinyl)acetamide] | 83 |  | 
30 | Cc1ccc(C#N)c(NCC(C)Cn2ccnc2)n1 (stereo not drawn) [Example 84, 2-[[3-(1H-Imidazol-1-yl)-2-methylpropyl]amino] 6-methyl-3-pyridinecarbonitrile, dihydrochloride] |  | 50 | 83.3
